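Method: 48-hour compound exposure of cells in 96-well plates, five concentrations, linear interpolation of endpoints. Abbreviation: GI50, concentration required for 50% inhibition of growth. Definition used: TGI = concentration required for complete inhibition of growth.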
Tests used:
Assay in all cases: NCI tumour cell line growth inhibition, 48 h
A549 NSCLC = test system: A549 NSCLC
OVCAR-4 ovarian = test system: OVCAR-4 ovarian
SK-MEL-2 melanoma = test system: SK-MEL-2 melanoma
RPMI-8226 leukemia = test system: RPMI-8226 leukemia
KM12 colon = test system: KM12 colon
CAKI-1 renal = test system: CAKI-1 renal
HL-60(TB) leukemia = test system: HL-60(TB) leukemia
M14 melanoma = test system: M14 melanoma
SR leukemia = test system: SR leukemia
NCI-H460 lung = test system: NCI-H460 lung
NCI/ADR-RES ovarian = test system: NCI/ADR-RES ovarian
SK-OV-3 ovarian = test system: SK-OV-3 ovarian
A498 renal = test system: A498 renal
K-562 leukemia = test system: K-562 leukemia
U251 CNS = test system: U251 CNS
HCT-116 colon = test system: HCT-116 colon
MCF7 breast = test system: MCF7 breast
SF-539 CNS = test system: SF-539 CNS
HS 578T breast = test system: HS 578T breast
OVCAR-3 ovarian = test system: OVCAR-3 ovarian
SNB-19 CNS = test system: SNB-19 CNS
COLO 205 colon = test system: COLO 205 colon
OVCAR-8 ovarian = test system: OVCAR-8 ovarian
OVCAR-5 ovarian = test system: OVCAR-5 ovarian
EKVX NSCLC = test system: EKVX NSCLC
T-47D breast = test system: T-47D breast
NCI-H226 lung = test system: NCI-H226 lung
MALME-3M melanoma = test system: MALME-3M melanoma
PC-3 prostate = test system: PC-3 prostate
SW-620 colon = test system: SW-620 colon
CCRF-CEM leukemia = test system: CCRF-CEM leukemia
RXF 393 renal = test system: RXF 393 renal
UACC-62 melanoma = test system: UACC-62 melanoma
HOP-92 NSCLC = test system: HOP-92 NSCLC
IGROV1 ovarian = test system: IGROV1 ovarian
SF-268 CNS = test system: SF-268 CNS
LOX IMVI melanoma = test system: LOX IMVI melanoma
SN12C renal = test system: SN12C renal
NCI-H522 lung = test system: NCI-H522 lung
SK-MEL-28 melanoma = test system: SK-MEL-28 melanoma
HCT-15 colon = test system: HCT-15 colon
SK-MEL-5 melanoma = test system: SK-MEL-5 melanoma
DU-145 prostate = test system: DU-145 prostate
MDA-MB-231 breast = test system: MDA-MB-231 breast
HT29 colon = test system: HT29 colon
786-0 renal = test system: 786-0 renal
UACC-257 melanoma = test system: UACC-257 melanoma
ACHN renal = test system: ACHN renal
SF-295 CNS = test system: SF-295 CNS
MDA-MB-435 = test system: MDA-MB-435
BT-549 breast = test system: BT-549 breast
NCI-H23 lung = test system: NCI-H23 lung
MOLT-4 leukemia = test system: MOLT-4 leukemia
SNB-75 CNS = test system: SNB-75 CNS
TK-10 renal = test system: TK-10 renal
UO-31 renal = test system: UO-31 renal
HOP-62 NSCLC = test system: HOP-62 NSCLC
HCC-2998 colon = test system: HCC-2998 colon

SMILES: COC(=O)CCC1CCC(c2cc(F)ccc2F)(S(=O)(=O)c2ccc(Cl)cc2)CC1 (stereo unspecified)
- GI50 (A549 NSCLC): 64.4 µM
- TGI (A549 NSCLC): > 100 µM
- GI50 (OVCAR-4 ovarian): 45.5 µM
- TGI (OVCAR-4 ovarian): > 100 µM
- GI50 (SK-MEL-2 melanoma): 62 µM
- TGI (SK-MEL-2 melanoma): > 100 µM
- GI50 (RPMI-8226 leukemia): 41.9 µM
- TGI (RPMI-8226 leukemia): > 100 µM
- GI50 (KM12 colon): 62.1 µM
- TGI (KM12 colon): > 100 µM
- GI50 (CAKI-1 renal): 6 µM
- TGI (CAKI-1 renal): > 100 µM
- GI50 (HL-60(TB) leukemia): 45.3 µM
- TGI (HL-60(TB) leukemia): > 100 µM
- GI50 (M14 melanoma): 55.4 µM
- TGI (M14 melanoma): > 100 µM
- GI50 (SR leukemia): > 100 µM
- TGI (SR leukemia): > 100 µM
- GI50 (NCI-H460 lung): 52.1 µM
- TGI (NCI-H460 lung): > 100 µM
- GI50 (NCI/ADR-RES ovarian): > 100 µM
- TGI (NCI/ADR-RES ovarian): > 100 µM
- GI50 (SK-OV-3 ovarian): > 100 µM
- TGI (SK-OV-3 ovarian): > 100 µM
- GI50 (A498 renal): 40.4 µM
- TGI (A498 renal): > 100 µM
- GI50 (K-562 leukemia): > 100 µM
- TGI (K-562 leukemia): > 100 µM
- GI50 (U251 CNS): > 100 µM
- TGI (U251 CNS): > 100 µM
- GI50 (HCT-116 colon): 38.2 µM
- TGI (HCT-116 colon): > 100 µM
- GI50 (MCF7 breast): 70.2 µM
- TGI (MCF7 breast): > 100 µM
- GI50 (SF-539 CNS): > 100 µM
- TGI (SF-539 CNS): > 100 µM
- GI50 (HS 578T breast): > 100 µM
- TGI (HS 578T breast): > 100 µM
- GI50 (OVCAR-3 ovarian): 83.7 µM
- TGI (OVCAR-3 ovarian): > 100 µM
- GI50 (SNB-19 CNS): > 100 µM
- TGI (SNB-19 CNS): > 100 µM
- GI50 (COLO 205 colon): > 100 µM
- TGI (COLO 205 colon): > 100 µM
- GI50 (OVCAR-8 ovarian): > 100 µM
- TGI (OVCAR-8 ovarian): > 100 µM
- GI50 (OVCAR-5 ovarian): > 100 µM
- TGI (OVCAR-5 ovarian): > 100 µM
- GI50 (EKVX NSCLC): 61.2 µM
- TGI (EKVX NSCLC): > 100 µM
- GI50 (T-47D breast): 39.3 µM
- TGI (T-47D breast): > 100 µM
- GI50 (NCI-H226 lung): 86.8 µM
- TGI (NCI-H226 lung): > 100 µM
- GI50 (MALME-3M melanoma): 67.1 µM
- TGI (MALME-3M melanoma): > 100 µM
- GI50 (PC-3 prostate): 30.7 µM
- TGI (PC-3 prostate): > 100 µM
- GI50 (SW-620 colon): > 100 µM
- TGI (SW-620 colon): > 100 µM
- GI50 (CCRF-CEM leukemia): > 100 µM
- TGI (CCRF-CEM leukemia): > 100 µM
- GI50 (RXF 393 renal): 55.4 µM
- TGI (RXF 393 renal): > 100 µM
- GI50 (UACC-62 melanoma): 69.4 µM
- TGI (UACC-62 melanoma): > 100 µM
- GI50 (HOP-92 NSCLC): 15.4 µM
- TGI (HOP-92 NSCLC): > 100 µM
- GI50 (IGROV1 ovarian): > 100 µM
- TGI (IGROV1 ovarian): > 100 µM
- GI50 (SF-268 CNS): > 100 µM
- TGI (SF-268 CNS): > 100 µM
- GI50 (LOX IMVI melanoma): 91.5 µM
- TGI (LOX IMVI melanoma): > 100 µM
- GI50 (SN12C renal): > 100 µM
- TGI (SN12C renal): > 100 µM
- GI50 (NCI-H522 lung): 62.4 µM
- TGI (NCI-H522 lung): > 100 µM
- GI50 (SK-MEL-28 melanoma): > 100 µM
- TGI (SK-MEL-28 melanoma): > 100 µM
- GI50 (HCT-15 colon): > 100 µM
- TGI (HCT-15 colon): > 100 µM
- GI50 (SK-MEL-5 melanoma): 28.4 µM
- TGI (SK-MEL-5 melanoma): > 100 µM
- GI50 (DU-145 prostate): > 100 µM
- TGI (DU-145 prostate): > 100 µM
- GI50 (MDA-MB-231 breast): > 100 µM
- TGI (MDA-MB-231 breast): > 100 µM
- GI50 (HT29 colon): 82.2 µM
- TGI (HT29 colon): > 100 µM
- GI50 (786-0 renal): > 100 µM
- TGI (786-0 renal): > 100 µM
- GI50 (UACC-257 melanoma): 48.9 µM
- TGI (UACC-257 melanoma): > 100 µM
- GI50 (ACHN renal): > 100 µM
- TGI (ACHN renal): > 100 µM
- GI50 (SF-295 CNS): > 100 µM
- TGI (SF-295 CNS): > 100 µM
- GI50 (MDA-MB-435): 88.5 µM
- TGI (MDA-MB-435): > 100 µM
- GI50 (BT-549 breast): 70.6 µM
- TGI (BT-549 breast): > 100 µM
- GI50 (NCI-H23 lung): 42.5 µM
- TGI (NCI-H23 lung): > 100 µM
- GI50 (MOLT-4 leukemia): 49.8 µM
- TGI (MOLT-4 leukemia): > 100 µM
- GI50 (SNB-75 CNS): > 100 µM
- TGI (SNB-75 CNS): > 100 µM
- GI50 (TK-10 renal): > 100 µM
- TGI (TK-10 renal): > 100 µM
- GI50 (UO-31 renal): 28 µM
- TGI (UO-31 renal): > 100 µM
- GI50 (HOP-62 NSCLC): > 100 µM
- TGI (HOP-62 NSCLC): > 100 µM
- GI50 (HCC-2998 colon): > 100 µM
- TGI (HCC-2998 colon): > 100 µM

Source: PubChem BioAssay (NCI)
